Results as given in publication PMC10380868, “Trapa bispinosa Roxb. Pericarp Extract Exerts 5α-Reductase Inhibitory Activity in Castrated Benign Prostatic Hyperplasia Model Mice” (International Journal of Molecular Sciences, 2023).

What was measured:
[1] = tested on: castrated BPH model mice; experiment: Castrated benign prostatic hyperplasia (BPH) mouse model; type: in vivo; settings: for testosterone-induced increase in seminal gland weight / testosterone-induced increase in ventral prostate size, length and width: 0.08% Fin, 1% TBE or 2% EA in drinking water, testosterone i.p. daily
[2] = tested on: 5αR; settings: cited from earlier work
[3] = biological target: T1, 5α-reductase (5αR) (Rattus norvegicus, UniProt P24008); experiment: 5αR activity assay (S9 rat liver homogenate, residual testosterone by HPLC); type: biochemical; settings: cell-free system
T1 sequence (P24008 1-259): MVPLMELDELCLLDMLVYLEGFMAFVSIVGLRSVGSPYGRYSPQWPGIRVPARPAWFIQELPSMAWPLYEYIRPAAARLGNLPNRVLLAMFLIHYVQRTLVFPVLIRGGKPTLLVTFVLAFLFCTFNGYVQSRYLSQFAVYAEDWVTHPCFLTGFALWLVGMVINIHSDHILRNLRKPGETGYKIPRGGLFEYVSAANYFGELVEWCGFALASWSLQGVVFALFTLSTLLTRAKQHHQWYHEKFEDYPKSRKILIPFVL

[4] = qPCR, prostate and seminal glands

For CC(C)(C)NC(=O)[C@H]1CC[C@H]2[C@@H]3CC[C@H]4NC(=O)C=C[C@]4(C)[C@H]3CC[C@]12C [Fin, finasteride], the “testosterone-induced increase in seminal gland weight” value [1] was “tended to inhibit”, the “testosterone-induced increase in ventral prostate size, length and width” value [1] was “tended to inhibit” and the “canalization and lumen formation in prostate gland” value ([1]; Masson's trichrome histology, 0.08% Fin or 1% TBE) was “suppressed”. For the same compound, the “prostate basal cell proliferation, BrdU+ cells” value ([1]; immunohistochemistry, 0.08% Fin or 1% TBE) was “inhibited cell proliferation”, the “PSA (Klkb1) expression” value [1, 4] was “suppressed” and the “TMPRSS2 expression” value [1, 4] was “suppressed”.

In the case of “1,2,3,6- or 1,2,4,6-tetra-O-galloyl-D-glucose [TGG]”, the “inhibition of 5αR” value [2] is listed as “inhibit 5αR”.

In the case of O=c1oc2c(O)c(O)cc3c(=O)oc4c(O)c(O)cc1c4c23 [EA, ellagic acid], the “inhibition of 5αR activity” value [3] is reported as “weakly inhibited”, the “testosterone-induced increase in seminal gland weight” value [1] is reported as “negligible effects” and the “testosterone-induced increase in ventral prostate size, length and width” value [1] is reported as “negligible effects”.

For O=C(O[C@@H]1O[C@@H]2COC(=O)c3cc(O)c(O)c(O)c3-c3c(cc(O)c(O)c3O)C(=O)O[C@H]2[C@H](OC(=O)c2cc(O)c(O)c(O)c2)[C@H]1OC(=O)c1cc(O)c(O)c(O)c1)c1cc(O)c(O)c(O)c1 [eugeniin], the “inhibition of 5αR” value [2] is given as “inhibit 5αR”.

For O=C(O)c1cc(O)c(O)c(O)c1 [GA, gallic acid], the “5αR inhibitory effects” value [2] is given as “does not exert 5αR inhibitory effects”.
